# Experimental data: publication PMC8364686, “Safety, tolerability, pharmacokinetics and pharmacodynamics of single oral doses of BI 187004, an inhibitor of 11beta-hydroxysteroid dehydrogenase-1, in healthy male volunteers with overweight or obesity” (Clinical Diabetes and Endocrinology, 2021)
# Experiment: Plasma pharmacokinetics of BI 187004 after single oral doses (LC–MS/MS)
# Conditions: male, human, plasma, po
# [1] = 10 mg, Plasma concentration Mean, 10 mg single oral
# [2] = 10 mg, Plasma concentration Median, 10 mg single oral
# [3] = 10 mg, Plasma concentration gMean, 10 mg single oral
compound,measurement,setting,value
N#Cc1ccc2c(c1)[C@H]1CCCN(C(=O)c3ccc4[nH]cnc4c3)[C@H]1C2 [BI 187004],concentration at 24 h,[1],76.9 nM
same,concentration at 36 h,[1],30.2 nM
same,concentration at 48 h,[1],22.8 nM
same,concentration at 72 h,[1],10.7 nM
same,concentration at 96 h,[1],5.72 nM
same,concentration at 0.5 h,"10 mg, Plasma concentration Median, 10 mg single oral, 0.5 h",363 nM
same,concentration at 1 h,"10 mg, Plasma concentration Median, 10 mg single oral, 1 h",413 nM
same,concentration at 1.5 h,"10 mg, Plasma concentration Median, 10 mg single oral, 1.5 h",435 nM
same,concentration at 2 h,"10 mg, Plasma concentration Median, 10 mg single oral, 2 h",396 nM
same,concentration at 2.5 h,"10 mg, Plasma concentration Median, 10 mg single oral, 2.5 h",381 nM
same,concentration at 3 h,"10 mg, Plasma concentration Median, 10 mg single oral, 3 h",334 nM
same,concentration at 4 h,"10 mg, Plasma concentration Median, 10 mg single oral, 4 h",368 nM
same,concentration at 5 h,"10 mg, Plasma concentration Median, 10 mg single oral, 5 h",272 nM
same,concentration at 6 h,"10 mg, Plasma concentration Median, 10 mg single oral, 6 h",243 nM
same,concentration at 8 h,"10 mg, Plasma concentration Median, 10 mg single oral, 8 h",217 nM
same,concentration at 10 h,[2],179 nM
same,concentration at 12 h,[2],147 nM
same,concentration at 24 h,[2],80 nM
same,concentration at 36 h,[2],29.6 nM
same,concentration at 48 h,[2],22.4 nM
same,concentration at 72 h,[2],9.36 nM
same,concentration at 96 h,[2],5.09 nM
same,concentration at 0.5 h,"10 mg, Plasma concentration gMean, 10 mg single oral, 0.5 h",279 nM
same,concentration at 1 h,"10 mg, Plasma concentration gMean, 10 mg single oral, 1 h",426 nM
same,concentration at 1.5 h,"10 mg, Plasma concentration gMean, 10 mg single oral, 1.5 h",435 nM
same,concentration at 2 h,"10 mg, Plasma concentration gMean, 10 mg single oral, 2 h",380 nM
same,concentration at 2.5 h,"10 mg, Plasma concentration gMean, 10 mg single oral, 2.5 h",372 nM
same,concentration at 3 h,"10 mg, Plasma concentration gMean, 10 mg single oral, 3 h",336 nM
same,concentration at 4 h,"10 mg, Plasma concentration gMean, 10 mg single oral, 4 h",340 nM
same,concentration at 5 h,"10 mg, Plasma concentration gMean, 10 mg single oral, 5 h",270 nM
same,concentration at 6 h,"10 mg, Plasma concentration gMean, 10 mg single oral, 6 h",254 nM
same,concentration at 8 h,"10 mg, Plasma concentration gMean, 10 mg single oral, 8 h",208 nM
same,concentration at 10 h,[3],174 nM
same,concentration at 12 h,[3],140 nM
same,concentration at 24 h,[3],71.3 nM
same,concentration at 36 h,[3],26.3 nM
same,concentration at 48 h,[3],20.5 nM
same,concentration at 72 h,[3],10.2 nM
same,concentration at 96 h,[3],5.48 nM
same,concentration at 1 h,"10 mg, Plasma concentration, individual subjects, 10 mg single oral, planned time 1 h",519 nM
same,concentration at 1.5 h,"10 mg, Plasma concentration, individual subjects, 10 mg single oral, planned time 1.5 h",537 nM
same,concentration at 2 h,"10 mg, Plasma concentration, individual subjects, 10 mg single oral, planned time 2 h",437 nM
same,concentration at 2.5 h,"10 mg, Plasma concentration, individual subjects, 10 mg single oral, planned time 2.5 h",442 nM
same,concentration at 3 h,"10 mg, Plasma concentration, individual subjects, 10 mg single oral, planned time 3 h",405 nM
same,concentration at 4 h,"10 mg, Plasma concentration, individual subjects, 10 mg single oral, planned time 4 h",412 nM
same,concentration at 5 h,"10 mg, Plasma concentration, individual subjects, 10 mg single oral, planned time 5 h",352 nM
same,concentration at 6 h,"10 mg, Plasma concentration, individual subjects, 10 mg single oral, planned time 6 h",353 nM
same,concentration at 8 h,"10 mg, Plasma concentration, individual subjects, 10 mg single oral, planned time 8 h",241 nM
same,AUC(0-inf),20 mg,12.4 µM·h
same,AUC(0-t),20 mg,9.45 µM·h
same,Cmax,20 mg,1030 nM
same,Tmax,20 mg,1.38 h
same,Vd/F,20 mg,144 L
same,half-life,20 mg,21.2 h
same,concentration at 0.5 h,"20 mg, BI 187004 plasma concentrations, 20 mg single oral, planned time 0.5 h, Max",1050 nM
same,concentration at 0.5 h,"20 mg, BI 187004 plasma concentrations, 20 mg single oral, planned time 0.5 h, Mean",431 nM
same,concentration at 0.5 h,"20 mg, BI 187004 plasma concentrations, 20 mg single oral, planned time 0.5 h, Median",215 nM
same,concentration at 0.5 h,"20 mg, BI 187004 plasma concentrations, 20 mg single oral, planned time 0.5 h, Min",34.3 nM
same,concentration at 0.5 h,"20 mg, BI 187004 plasma concentrations, 20 mg single oral, planned time 0.5 h, gMean",211 nM
same,concentration at 1 h,"20 mg, BI 187004 plasma concentrations, 20 mg single oral, planned time 1 h, Max",1130 nM
same,concentration at 1 h,"20 mg, BI 187004 plasma concentrations, 20 mg single oral, planned time 1 h, Mean",885 nM
same,concentration at 1 h,"20 mg, BI 187004 plasma concentrations, 20 mg single oral, planned time 1 h, Median",1030 nM
same,concentration at 1 h,"20 mg, BI 187004 plasma concentrations, 20 mg single oral, planned time 1 h, Min",236 nM
same,concentration at 1 h,"20 mg, BI 187004 plasma concentrations, 20 mg single oral, planned time 1 h, gMean",788 nM
same,concentration at 1.5 h,"20 mg, BI 187004 plasma concentrations, 20 mg single oral, planned time 1.5 h, Max",1210 nM
same,concentration at 1.5 h,"20 mg, BI 187004 plasma concentrations, 20 mg single oral, planned time 1.5 h, Mean",969 nM
same,concentration at 1.5 h,"20 mg, BI 187004 plasma concentrations, 20 mg single oral, planned time 1.5 h, Median",944 nM
same,concentration at 1.5 h,"20 mg, BI 187004 plasma concentrations, 20 mg single oral, planned time 1.5 h, Min",824 nM
same,concentration at 1.5 h,"20 mg, BI 187004 plasma concentrations, 20 mg single oral, planned time 1.5 h, gMean",960 nM
same,concentration at 1.5 h,"20 mg, BI 187004 plasma concentrations, 20 mg single oral, planned time 1.5 h, individual subjects",1210 nM
same,concentration at 2 h,"20 mg, BI 187004 plasma concentrations, 20 mg single oral, planned time 2 h, Max",1100 nM
same,concentration at 2 h,"20 mg, BI 187004 plasma concentrations, 20 mg single oral, planned time 2 h, Mean",877 nM
same,concentration at 2 h,"20 mg, BI 187004 plasma concentrations, 20 mg single oral, planned time 2 h, Median",890 nM
same,concentration at 2 h,"20 mg, BI 187004 plasma concentrations, 20 mg single oral, planned time 2 h, Min",630 nM
same,concentration at 2 h,"20 mg, BI 187004 plasma concentrations, 20 mg single oral, planned time 2 h, gMean",863 nM
same,concentration at 2 h,"20 mg, BI 187004 plasma concentrations, 20 mg single oral, planned time 2 h, individual subjects",1100 nM
same,concentration at 2.5 h,"20 mg, BI 187004 plasma concentrations, 20 mg single oral, planned time 2.5 h, Max",1060 nM
same,concentration at 2.5 h,"20 mg, BI 187004 plasma concentrations, 20 mg single oral, planned time 2.5 h, Mean",860 nM
same,concentration at 2.5 h,"20 mg, BI 187004 plasma concentrations, 20 mg single oral, planned time 2.5 h, Median",866 nM
same,concentration at 2.5 h,"20 mg, BI 187004 plasma concentrations, 20 mg single oral, planned time 2.5 h, Min",619 nM
same,concentration at 2.5 h,"20 mg, BI 187004 plasma concentrations, 20 mg single oral, planned time 2.5 h, gMean",843 nM
same,concentration at 2.5 h,"20 mg, BI 187004 plasma concentrations, 20 mg single oral, planned time 2.5 h, individual subjects",1060 nM
same,concentration at 3 h,"20 mg, BI 187004 plasma concentrations, 20 mg single oral, planned time 3 h, Max",945 nM
same,concentration at 3 h,"20 mg, BI 187004 plasma concentrations, 20 mg single oral, planned time 3 h, Mean",760 nM
same,concentration at 3 h,"20 mg, BI 187004 plasma concentrations, 20 mg single oral, planned time 3 h, Median",770 nM
same,concentration at 3 h,"20 mg, BI 187004 plasma concentrations, 20 mg single oral, planned time 3 h, Min",586 nM
same,concentration at 3 h,"20 mg, BI 187004 plasma concentrations, 20 mg single oral, planned time 3 h, gMean",746 nM
same,concentration at 3 h,"20 mg, BI 187004 plasma concentrations, 20 mg single oral, planned time 3 h, individual subjects",945 nM
same,concentration at 4 h,"20 mg, BI 187004 plasma concentrations, 20 mg single oral, planned time 4 h, Max",896 nM
same,concentration at 4 h,"20 mg, BI 187004 plasma concentrations, 20 mg single oral, planned time 4 h, Mean",724 nM
same,concentration at 4 h,"20 mg, BI 187004 plasma concentrations, 20 mg single oral, planned time 4 h, Median",748 nM
same,concentration at 4 h,"20 mg, BI 187004 plasma concentrations, 20 mg single oral, planned time 4 h, Min",531 nM
same,concentration at 4 h,"20 mg, BI 187004 plasma concentrations, 20 mg single oral, planned time 4 h, gMean",707 nM
same,concentration at 4 h,"20 mg, BI 187004 plasma concentrations, 20 mg single oral, planned time 4 h, individual subjects",896 nM
same,concentration at 5 h,"20 mg, BI 187004 plasma concentrations, 20 mg single oral, planned time 5 h, Max",883 nM
same,concentration at 5 h,"20 mg, BI 187004 plasma concentrations, 20 mg single oral, planned time 5 h, Mean",653 nM
same,concentration at 5 h,"20 mg, BI 187004 plasma concentrations, 20 mg single oral, planned time 5 h, Median",644 nM
same,concentration at 5 h,"20 mg, BI 187004 plasma concentrations, 20 mg single oral, planned time 5 h, Min",463 nM
same,concentration at 5 h,"20 mg, BI 187004 plasma concentrations, 20 mg single oral, planned time 5 h, gMean",634 nM
same,concentration at 5 h,"20 mg, BI 187004 plasma concentrations, 20 mg single oral, planned time 5 h, individual subjects",773 nM
same,concentration at 6 h,"20 mg, BI 187004 plasma concentrations, 20 mg single oral, planned time 6 h, Max",847 nM
same,concentration at 6 h,"20 mg, BI 187004 plasma concentrations, 20 mg single oral, planned time 6 h, Mean",566 nM
same,concentration at 6 h,"20 mg, BI 187004 plasma concentrations, 20 mg single oral, planned time 6 h, Median",529 nM
same,concentration at 6 h,"20 mg, BI 187004 plasma concentrations, 20 mg single oral, planned time 6 h, Min",420 nM
